Measured values published in ChEMBL document CHEMBL4417631, “Oral peptide inhibitors of interleukin-23 receptor and their use to treat inflammatory bowel diseases” (2017).

Columns and labels:
[1] = molecular target: T1, Interleukin-23 receptor (Homo sapiens, UniProt Q5VWK5); assay: Inhibition of interleukin-23 binding to human interleukin-23 receptor incubated for 2 hrs by competitive binding ELISA
T1 sequence (Q5VWK5 whole entry): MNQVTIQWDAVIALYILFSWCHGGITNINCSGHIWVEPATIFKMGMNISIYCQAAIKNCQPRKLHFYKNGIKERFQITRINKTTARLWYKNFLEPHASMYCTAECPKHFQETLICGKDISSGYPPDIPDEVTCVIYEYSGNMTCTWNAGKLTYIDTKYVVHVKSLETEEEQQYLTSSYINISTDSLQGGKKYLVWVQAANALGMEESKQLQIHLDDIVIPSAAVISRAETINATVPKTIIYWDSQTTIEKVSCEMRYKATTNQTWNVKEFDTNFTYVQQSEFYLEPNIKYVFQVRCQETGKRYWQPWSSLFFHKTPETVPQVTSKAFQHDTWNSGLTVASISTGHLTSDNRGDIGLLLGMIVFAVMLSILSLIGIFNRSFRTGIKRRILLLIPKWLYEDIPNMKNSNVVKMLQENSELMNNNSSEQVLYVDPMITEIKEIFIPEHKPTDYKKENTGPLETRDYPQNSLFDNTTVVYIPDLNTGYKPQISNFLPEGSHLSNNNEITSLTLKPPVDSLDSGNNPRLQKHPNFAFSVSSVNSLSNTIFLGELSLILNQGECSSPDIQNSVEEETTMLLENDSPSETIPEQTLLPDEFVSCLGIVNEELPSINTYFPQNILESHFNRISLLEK

[2] = molecular target: T1, Interleukin-23 receptor; assay: Inhibition of interleukin-23 receptor in human DB cells assessed as reduction in IL-23-stimulated STAT3 phosphorylation incubated for 30 mins by HTRF assay; assay type: cell-based
[3] = Half life in simulated intestinal fluid at 20 uM by LC-MS/MS analysis; assay type: ADME
[4] = Half life in simulated gastric fluid at 20 uM by LC-MS/MS analysis; assay type: ADME

| Compound | IC50 [1] | IC50 [2] | half-life at 20 µM [3] | half-life at 20 µM [4] |
| --- | --- | --- | --- | --- |
| CC(=O)NCCCC[C@H](NC(=O)C(C)(C)NC(=O)[C@H](Cc1ccc2ccccc2c1)NC(=O)[C@H](Cc1ccc(OCCN)cc1)NC(=O)[C@@H]1CSCC[C@H](NC(C)=O)C(=O)N[C@@H](CCC(N)=O)C(=O)N[C@@H]([C@@H](C)O)C(=O)N[C@@H](Cc2c[nH]c3ccccc23)C(=O)N[C@@H](CCC(N)=O)C(=O)N1)C(=O)N[C@@H](CCC(N)=O)C(=O)NCC(N)=O | 10 to 25 nM | < 10 nM | 2 to 3 h | < 1 h |
| CC[C@](C)(NC(=O)[C@H](Cc1ccc2ccccc2c1)NC(=O)[C@H](Cc1ccc(OCCN)cc1)NC(=O)[C@@H]1CSCC[C@H](NC(C)=O)C(=O)N[C@@H](CCC(N)=O)C(=O)N[C@@H]([C@@H](C)O)C(=O)N[C@@H](Cc2c[nH]c3ccccc23)C(=O)N[C@@H](CCC(N)=O)C(=O)N1)C(=O)N[C@@H](CCCCNC(C)=O)C(=O)N[C@@H](CC(N)=O)C(=O)NCC(N)=O | < 10 nM | < 10 nM | 1 to 2 h | < 1 h |
| COc1ccc(C[C@H](NC(=O)[C@@H](NC(=O)[C@H](CCC(N)=O)NC(=O)[C@H](Cc2c[nH]c3ccccc23)NC(=O)[C@@H](NC(=O)[C@H](CC(N)=O)NC(=O)[C@@H](NC(C)=O)C(C)(C)S)[C@@H](C)O)C(C)(C)S)C(=O)N[C@@H](Cc2ccc3ccccc3c2)C(=O)NC(C)(C)C(=O)N[C@@H](CCC(=O)O)C(=O)N[C@@H](CC(N)=O)C(=O)N[C@@H](CC(N)=O)C(N)=O)cc1 | – | < 10 nM | 2 to 3 h | > 6 h |
| CC(=O)NCCCC[C@H](NC(=O)C(C)(C)NC(=O)[C@H](Cc1ccc2ccccc2c1)NC(=O)[C@H](Cc1ccc(OCCN)cc1)NC(=O)[C@@H](NC(=O)[C@H](CCC(N)=O)NC(=O)[C@H](Cc1c[nH]c2ccccc12)NC(=O)[C@@H](NC(=O)[C@H](CCC(N)=O)NC(=O)[C@@H](NC(C)=O)C(C)(C)S)[C@@H](C)O)C(C)(C)S)C(=O)N[C@@H](CC(N)=O)C(=O)NCCC(N)=O | – | < 10 nM | > 6 h | > 6 h |
| CC[C@H](NC(=O)[C@H](CC(N)=O)NC(=O)[C@H](CCCCNC(C)=O)NC(=O)C(C)(C)NC(=O)[C@H](Cc1ccc2ccccc2c1)NC(=O)[C@H](Cc1ccc(OC)cc1)NC(=O)[C@@H](NC(=O)[C@H](CCC(N)=O)NC(=O)[C@H](Cc1c[nH]c2ccccc12)NC(=O)[C@@H](NC(=O)[C@H](CC(N)=O)NC(=O)[C@@H](NC(C)=O)C(C)(C)S)[C@@H](C)O)C(C)(C)S)C(N)=O | – | < 10 nM | 3 to 6 h | > 6 h |
| CC(=O)N[C@H]1CCSC[C@@H](C(=O)N[C@@H](Cc2ccc(OCCN)cc2)C(=O)N[C@@H](Cc2c[nH]c3ccccc23)C(=O)N[C@@](C)(CC(C)C)C(=O)N[C@@H](CCC(=O)O)C(=O)N[C@@H](CC(N)=O)C(=O)NCC(N)=O)NC(=O)[C@H](CCC(N)=O)NC(=O)[C@H](Cc2c[nH]c3ccccc23)NC(=O)[C@H]([C@@H](C)O)NC(=O)[C@H](CCC(N)=O)NC1=O | < 10 nM | < 10 nM | > 6 h | 3 to 6 h |
| CC(=O)NCCCC[C@H](NC(=O)[C@H](CCC(C)C)NC(=O)[C@H](Cc1ccc2ccccc2c1)NC(=O)[C@H](Cc1ccc(OCCN)cc1)NC(=O)[C@@H](NC(=O)[C@H](CCC(N)=O)NC(=O)[C@H](Cc1c[nH]c2ccccc12)NC(=O)[C@@H](NC(=O)[C@H](CC(N)=O)NC(=O)[C@@H](NC(C)=O)C(C)(C)S)[C@@H](C)O)C(C)(C)S)C(=O)N[C@@H](CC(N)=O)C(=O)NCCC(N)=O | – | < 10 nM | < 1 h | < 1 h |
| CC(=O)NCCCC[C@H](NC(=O)C(C)(C)NC(=O)[C@H](Cc1ccc2ccccc2c1)NC(=O)[C@H](Cc1ccc(OCCN)cc1)NC(=O)[C@@H](NC(=O)[C@H](CCC(N)=O)NC(=O)[C@H](Cc1c[nH]c2ccccc12)NC(=O)[C@@H](NC(=O)[C@H](CC(N)=O)NC(=O)[C@@H](NC(C)=O)C(C)(C)S)[C@@H](C)O)C(C)(C)S)C(=O)N[C@@H](CC(N)=O)C(=O)N[C@@H](C)C(N)=O | – | < 10 nM | > 6 h | > 6 h |
| COc1ccc(C[C@H](NC(=O)[C@@H](NC(=O)[C@H](CCC(N)=O)NC(=O)[C@H](Cc2c[nH]c3ccccc23)NC(=O)[C@@H](NC(=O)[C@H](CC(N)=O)NC(=O)[C@@H](NC(C)=O)C(C)(C)S)[C@@H](C)O)C(C)(C)S)C(=O)N[C@@H](Cc2ccc3ccccc3c2)C(=O)N[C@@H](CCC(C)C)C(=O)N[C@@H](CCCCNC(C)=O)C(=O)N[C@@H](CC(N)=O)C(=O)NCCC(N)=O)cc1 | – | < 10 nM | < 1 h | < 1 h |
| COc1ccc(C[C@H](NC(=O)[C@@H](NC(=O)[C@H](CCC(N)=O)NC(=O)[C@H](Cc2c[nH]c3ccccc23)NC(=O)[C@@H](NC(=O)[C@H](CCC(N)=O)NC(=O)[C@@H](NC(C)=O)C(C)(C)S)[C@@H](C)O)C(C)(C)S)C(=O)N[C@@H](Cc2ccc3ccccc3c2)C(=O)NC(C)(C)C(=O)N[C@@H](CCCCNC(C)=O)C(=O)N[C@@H](CC(N)=O)C(=O)N[C@@H](CC(N)=O)C(N)=O)cc1 | – | < 10 nM | 3 to 6 h | > 6 h |
| COc1ccc(C[C@H](NC(=O)[C@@H](NC(=O)[C@H](CCC(N)=O)NC(=O)[C@H](Cc2c[nH]c3ccccc23)NC(=O)[C@@H](NC(=O)[C@H](CC(N)=O)NC(=O)[C@@H](NC(C)=O)C(C)(C)S)[C@@H](C)O)C(C)(C)S)C(=O)N[C@@H](Cc2ccc3ccccc3c2)C(=O)NC(C)(C)C(=O)N[C@@H](CCCCNC(C)=O)C(=O)N[C@@H](CC(N)=O)C(=O)N[C@@H](CC(N)=O)C(N)=O)cc1 | – | < 10 nM | > 6 h | > 6 h |
| COc1ccc(C[C@H](NC(=O)[C@@H](NC(=O)[C@H](CCC(N)=O)NC(=O)[C@H](Cc2c[nH]c3ccccc23)NC(=O)[C@@H](NC(=O)[C@H](CCC(N)=O)NC(=O)[C@@H](NC(C)=O)C(C)(C)S)[C@@H](C)O)C(C)(C)S)C(=O)N[C@@H](Cc2ccc3ccccc3c2)C(=O)NC(C)(C)C(=O)N[C@@H](CCC(=O)O)C(=O)N[C@@H](CC(N)=O)C(=O)N[C@@H](CC(N)=O)C(N)=O)cc1 | – | < 10 nM | 2 to 3 h | > 6 h |
| CC(=O)NCCCC[C@H](NC(=O)C(C)(C)NC(=O)[C@H](Cc1ccc2ccccc2c1)NC(=O)[C@H](Cc1ccc(OCCN)cc1)NC(=O)[C@@H](NC(=O)[C@H](CCC(N)=O)NC(=O)[C@H](Cc1c[nH]c2ccccc12)NC(=O)[C@@H](NC(=O)[C@H](CC(N)=O)NC(=O)[C@@H](NC(C)=O)C(C)(C)S)[C@@H](C)O)C(C)(C)S)C(=O)N[C@@H](CC(N)=O)C(=O)N[C@@H](CCC(N)=O)C(N)=O | – | < 10 nM | > 6 h | > 6 h |
| COc1ccc(C[C@H](NC(=O)[C@@H](NC(=O)[C@H](CCC(N)=O)NC(=O)[C@H](Cc2c[nH]c3ccccc23)NC(=O)[C@@H](NC(=O)[C@H](CC(N)=O)NC(=O)[C@@H](NC(C)=O)C(C)(C)S)[C@@H](C)O)C(C)(C)S)C(=O)N[C@@H](Cc2ccc3ccccc3c2)C(=O)NC(C)(C)C(=O)N[C@@H](CCCCNC(C)=O)C(=O)N[C@@H](CC(N)=O)C(=O)N[C@@H](CCC(N)=O)C(N)=O)cc1 | – | < 10 nM | > 6 h | > 6 h |
| COc1ccc(C[C@H](NC(=O)[C@@H]2CSCC[C@H](NC(C)=O)C(=O)N[C@@H](CCC(N)=O)C(=O)N[C@@H]([C@@H](C)O)C(=O)N[C@@H](Cc3c[nH]c4ccccc34)C(=O)N[C@@H](CCC(N)=O)C(=O)N2)C(=O)N[C@@H](Cc2ccc3ccccc3c2)C(=O)N[C@H](C(=O)N[C@@H](CCCCNC(C)=O)C(=O)N[C@@H](CC(N)=O)C(=O)NCC(N)=O)C2CCCCC2)cc1 | 25 to 100 nM | – | 2 to 6 h | 3 to 6 h |
| CC(=O)NCCCC[C@H](NC(=O)C(C)(C)NC(=O)[C@H](Cc1ccc2ccccc2c1)NC(=O)[C@H](Cc1ccc(OCCN)cc1)NC(=O)[C@@H](NC(=O)[C@H](CCC(N)=O)NC(=O)[C@H](Cc1c[nH]c2ccccc12)NC(=O)[C@@H](NC(=O)[C@@H](NC(=O)[C@@H](NC(C)=O)C(C)(C)S)[C@@H](C)O)[C@@H](C)O)C(C)(C)S)C(=O)N[C@@H](CC(N)=O)C(=O)N[C@@H](CC(N)=O)C(N)=O | – | < 10 nM | > 6 h | > 6 h |
| CC(=O)N[C@H](C(=O)N[C@@H](CCC(N)=O)C(=O)N[C@H](C(=O)N[C@@H](Cc1c[nH]c2ccccc12)C(=O)N[C@@H](CCC(N)=O)C(=O)N[C@H](C(=O)N[C@@H](Cc1ccc(OCCN)cc1)C(=O)N[C@@H](Cc1ccc2ccccc2c1)C(=O)N[C@@H](CCC(C)C)C(=O)N[C@@H](CCC(=O)O)C(=O)N[C@@H](CC(N)=O)C(=O)N[C@@H](C)C(N)=O)C(C)(C)S)[C@@H](C)O)C(C)(C)S | – | 10 to 25 nM | < 1 h | < 1 h |
| CC(=O)N[C@H](C(=O)N[C@@H](CC(N)=O)C(=O)N[C@H](C(=O)N[C@@H](Cc1c[nH]c2ccccc12)C(=O)N[C@@H](CCC(N)=O)C(=O)N[C@H](C(=O)N[C@@H](Cc1ccc(OCCN)cc1)C(=O)N[C@@H](Cc1ccc2ccccc2c1)C(=O)N[C@@H](CCC(C)C)C(=O)N[C@@H](CCC(=O)O)C(=O)N[C@@H](CC(N)=O)C(=O)N[C@@H](C)C(N)=O)C(C)(C)S)[C@@H](C)O)C(C)(C)S | – | < 10 nM | 1 to 2 h | < 1 h |
